According to patent US12171852B1, “Composition and methods for regulating melanogenesis” (Sytheon Ltd, priority 2023, dated 2024):
Each block holds one molecule with its values, some of them ahead of it.

What was measured:
NADPH Oxidase 4 (NOX-4) = NADPH Oxidase 4 (NOX-4) (Homo sapiens (Human), UniProt Q9NPH5); assay: NADPH oxidase (NOX-4) inhibitory activity, NOX4 ELISA kit; format: biochemical
Experimental: A study was conducted on the direct impact of Zn di-(di-n-butyryl lysinate) (ZDBL), Ca di-(di-n-butyryl lysinate), and Na butyrate on NADPH Oxidase 4 (NOX-4) enzyme. In this study, 0.01 gram of sample was dissolved in 1 ml propanediol to make solution. For the analysis, a 1 to 2 serial dilution of the stock solution of the sample using buffer was made to determine the IC50 values. The analysis was done following NOX4 ELISA kit (My BioSource, Catalog #MBS2505108) protocol.

mushroom tyrosinase = assay: In vitro tyrosinase inhibition assay (L-DOPA conversion); format: biochemical; conditions: for Tyrosinase enzyme activity (% of Control): 80 min, L-DOPA 5 mM; for Inhibition of tyrosinase activity (in words): particularly at the higher concentrations
Experimental: Louis, MO, catalog #K3125) was employed as the positive control/reference substance. […] [Biosci Biotechnol Biochem, 67:1587-1589, 2003]. […] The final concentration used in the assay was 16 U/well (80 U/ml). Tyrosinase substrate L-DOPA (Acros Organics, Fair Lawn, NJ) was used at 5 mM. Reactions were conducted in a 96 well format and were initiated by adding the enzyme to the reaction mix and allowed to react for 80 min. […] The increase of the melanin output was calculated using the formula: ΔM=[A450 nm(t=80 min.)+Tyrosinase]−[A450 nm(t=80 min.)−Tyrosinase] where ΔM is increase of melanin, A is absorbance for a given experimental condition, t is a time point and 450 nm is the wavelength used for the quantification of melanin and “-Tyrosinase” is the background reading of identical experimental conditions without the enzyme.

[1] = test system: microphthalmia-associated transcription factor (MITF) gene expression; assay: MITF gene expression, transcriptome analysis of treated EpiDermFT tissues; format: cell-based; conditions: EpiDermFT tissue, 3 μl of 100 μg/ml solution, 24 hours
Experimental: EpiDermFT tissues were obtained from MatTek and equilibrated overnight in the cell culture incubator. […] All stock solutions were prepared at 20 mg/ml in DMSO and further dilutions were made in sterile distilled water. The proposed dosage used was based on cytotoxicity data. Water was used as the negative control. The treated tissue samples were incubated for a period of 24 hours following which RNA was extracted and prepared for transcriptome analysis for assessing the impact, if any, on the gene expression of microphthalmia-associated transcription factor (MITF). Sequencing data were generated by Azenta Life Sciences (HiSeq 2×150 bp). Analyses were performed using raw FastQ files provided by Azenta.

B16-F1 melanocytes = assay: Melanin synthesis in melanocytes, melanin colorimetric competitive ELISA; format: cell-based; conditions: for % Melanin Inhibition: 200 μg/ml, water control = 100; for Melanin-inhibitory activity (in words): colorimetric quantification, ZDBL at 200 μg/ml
Thioredoxin reductase 1 = Thioredoxin reductase 1 (Homo sapiens (Human), UniProt Q16881); assay: Thioredoxin reductase 1 (TrxR1) inhibitory activity; format: biochemical; conditions: average of two readings; 1 hour incubation at room temperature
Thioredoxin reductase 1, sequence (Q16881 151-649): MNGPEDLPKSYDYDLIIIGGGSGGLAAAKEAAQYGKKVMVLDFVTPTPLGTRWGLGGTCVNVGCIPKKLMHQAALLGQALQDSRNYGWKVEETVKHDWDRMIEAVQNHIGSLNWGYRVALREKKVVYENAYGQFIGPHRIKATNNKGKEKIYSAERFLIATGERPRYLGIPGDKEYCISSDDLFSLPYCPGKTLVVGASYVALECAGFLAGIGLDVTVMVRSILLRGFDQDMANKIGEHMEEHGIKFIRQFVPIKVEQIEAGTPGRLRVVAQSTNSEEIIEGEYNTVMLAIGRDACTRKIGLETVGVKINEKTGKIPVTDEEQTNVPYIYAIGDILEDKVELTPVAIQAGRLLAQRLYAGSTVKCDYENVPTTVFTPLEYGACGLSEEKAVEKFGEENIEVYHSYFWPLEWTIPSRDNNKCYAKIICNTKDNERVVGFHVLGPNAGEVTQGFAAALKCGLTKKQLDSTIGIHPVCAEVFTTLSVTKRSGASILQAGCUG
Experimental: Thioredoxin is known to influence melanogenesis substrates [Y Lu et al., Modulating skin colour: role of thioredoxin and glutathione systems in regulating melanogenesis, Bioscience Reports, 2021; 41 BSR20210427]. […] Test materials were prepared by dissolving 0.01 gm of each test material in 1 ml ethanol to make stock solutions. […] The plate was read at 412 nm for 30 minutes to determine the inhibition.

MITF gene expression = MITF gene expression validated by real-time quantitative PCR in EpiDermFT tissues; format: cell-based; conditions: versus water control
Experimental: As validation of the findings above a second analysis of the tissue samples was performed this time using cDNA prepared using High-Capacity RNA-to-cDNA™ Kit (Thermo Fisher Scientific). Expression of the applicable genes was measured by real-time quantitative PCR with the BioRad iCycler iQ Detection System using PCR primers from Realtimeprimers (Elkins Park, PA) and AzuraView GreenFast qPCR Blue Mix LR (Azura Genomics, Raynham, MA). Efficiency ΔΔCt method was used for quantification of results, after the normalization of gene expression to GAPD (a housekeeping gene).

- IC50 value, NADPH Oxidase (NOX-4) (NADPH Oxidase 4 (NOX-4)): 240 µg/mL
- Tyrosinase enzyme activity (% of Control) (mushroom tyrosinase; 10 μg/ml): 85 (p = 0.10) % of Control
- Tyrosinase enzyme activity (% of Control) (mushroom tyrosinase; 50 μg/ml): 89 (p = 0.13) % of Control
- Tyrosinase enzyme activity (% of Control) (mushroom tyrosinase; 200 μg/ml): 99 (p = 0.86) % of Control
- Inhibition of tyrosinase activity (in words) (mushroom tyrosinase): ineffective
- IC50 value, Thioredoxin Reductase 1 (Thioredoxin reductase 1): 4.53 µg/mL
SMILES: CCCC(=O)NCCCCC(NC(=O)CCC)C(=O)[O-].CCCC(=O)NCCCCC(NC(=O)CCC)C(=O)[O-].[Ca+2] (centres unmarked) [CDBL, calcium di-(di-n-butyryl lysinate)]
- Fold change/mean FPKM = 2.2 (MITF gene expression) [1]: 0.41
- MITF gene expression effect (in words) ([1]; listed as Ca di-(di-n-butyryl lysinate) (CDBL)): No effect
- MITF gene expression effect (in words) ([1]; listed as Ca di-n-butyryl lysinate): not significantly altered
- % Melanin Inhibition (B16-F1 melanocytes; three days): 0%
- Melanin-inhibitory activity (in words) (B16-F1 melanocytes): no significant effect
- Comments (MITF gene expression by PCR) (MITF gene expression): No Effect

SMILES: NCCCC[C@H](N)C(=O)[O-].NCCCC[C@H](N)C(=O)[O-].[Ca+2] [Ca lysinate (CLY), Ca lysinate]
- Fold change/mean FPKM = 2.2 (MITF gene expression) [1]: −0.21
- MITF gene expression effect (in words) [1]: No effect
- MITF gene expression effect (in words) ([1]; listed as Ca lysinate): not significantly altered
- Comments (MITF gene expression by PCR) (MITF gene expression): No Effect

SMILES: CCCCCCc1ccc(O)cc1O [Hexylresorcinol]
- Melanin inhibition, positive control (B16-F1 melanocytes; 5 μg/ml, three days): *Hexylresorcinol (5 μg/ml) was used as a positive control: Melanin inhibition was found fo be 17% of control (p = 0.007) confirming the validation of the protocol.

SMILES: O=c1cc(CO)occ1O [Kojic acid, kojic acid]
- Tyrosinase enzyme activity (% of control), positive control (mushroom tyrosinase; 200 μM): *Kojic acid (200 μM) was used as a positive control: Tyrosinase enzyme activity was found to be 39% of control (p = 0.00) confirming the validation of the protocol.

SMILES: NCCCC[C@H](N)C(=O)O [Lysine (LYS), Lysine]
- Fold change/mean FPKM = 2.2 (MITF gene expression) [1]: 0.38
- MITF gene expression effect (in words) [1]: No effect
- MITF gene expression effect (in words) ([1]; listed as lysine): not significantly altered

- IC50 value, NADPH Oxidase (NOX-4) (NADPH Oxidase 4 (NOX-4)): 170 µg/mL
SMILES: CCCC(=O)[O-].[Na+] [Na butyrate]

SMILES: NCCCC[C@H](N)C(=O)[O-].NCCCC[C@H](N)C(=O)[O-].[Zn+2] [Zn lysinate (ZLY), Zn lysinate]
- Tyrosinase enzyme activity (% of Control) (mushroom tyrosinase; 10 μg/ml): 80 (p = 0.02) % of Control
- Tyrosinase enzyme activity (% of Control) (mushroom tyrosinase; 50 μg/ml): 90 (p = 0.95) % of Control
- Tyrosinase enzyme activity (% of Control) (mushroom tyrosinase; 200 μg/ml): 90 (p = 0.23) % of Control
- Inhibition of tyrosinase activity (in words) (mushroom tyrosinase): ineffective
- Fold change/mean FPKM = 2.2 (MITF gene expression) [1]: 0.17
- MITF gene expression effect (in words) [1]: No effect
- MITF gene expression effect (in words) ([1]; listed as Zn lysinate): not significantly altered
- % Melanin Inhibition (B16-F1 melanocytes; three days): 0%
- Melanin-inhibitory activity (in words) (B16-F1 melanocytes): no significant effect
- Comments (MITF gene expression by PCR) (MITF gene expression): No Effect
